Measured values as given in patent US10053471B2, “Azabenzimidazole derivatives” (Boehringer Ingelheim International GmbH, priority 2015, dated 2018).

Target: AMPK α1β1γ1 (Homo sapiens (Human), UniProt Q13131+Q9Y478)
Test: in vitro AMPK activation assay (ADP Glo Luminescence Kinase test)
Assay type: biochemical
Details: for Emax: maximal achievable activation in the tested concentration range, percent of control max (positive control without test substance = 100%), read-out: AMPK α1β1γ1 PoCmax; for EC50: recombinant human AMPK alpha1/beta1/gamma1, ADP-Glo luminescence read-out
Procedure: Recombinant human AMPK (containing subunits alpha1, beta1 and gamma1) was obtained from a baculovirus expression system. The 3 subunits were expressed together, affinity-purified via a GST-tag fused to the alpha 1 subunit and deep-frozen in storage buffer (50 mM Tris-HCl pH 8, 300 mM NaCl, 1 mM TCEP and 10% glycerol) at −80° C. until use. The activity of the AMPK protein was determined using the ADP Glo® Luminescence Kinase test (Promega; V9103X). In this homogeneous test the amount of ADP formed by the kinase reaction is quantified by a luciferin-luciferase reaction using luminescence as read-out. The luminescence signal obtained correlates with the amount of ADP resulting from the kinase reaction and thus correlates with the activity of the protein kinase.
The test compounds were dissolved in 100% DMSO at a concentration of 10 mM and in a first step diluted in DMSO to a concentration of 5 mM, followed by serial dilution steps in 100% DMSO. Dilution factor and number of dilution steps may vary. Typically 8 different concentrations by 1:5 dilutions were prepared, further dilutions of the substances were carried out with test buffer (20 mM Hepes (pH 7.0), 15 mM MgCl2, 0.025% BSA, 0.01% Brij 35) until a concentration was reached which was 5 times above the final test concentration. 2 μl aliquots of these dilutions were transferred into a 384-well Optiplate (Perkin Elmer, #6007290). Typically the start concentration for serial dilutions in the assay is 10 μM. Typically AMPK was diluted to 25 μg/ml in the test buffer and 4 μl of this dilution were used in the kinase test (final concentration of AMPK is 10 μg/ml in a total volume of 10 μl for the kinase reaction). Kinase concentrations may vary depending on activity of the preparation batches. After 10 minutes incubation at room temperature 4 μl of a mix containing 2.5 μM substrate (H-His-Met-Arg-Ser-Ala-Met-Ser-Gly-Leu-His-Leu-Val-Lys-Arg-Arg-OH Trifluoroacetate salt/HMRSAMSGLHLVKRR from Bachem, Cat. No. H5938) and 75 μM ATP in test buffer were added to each well and the incubation was continued for 60 minutes at room temperature.
Positive controls are the reaction mixtures that contain no test substance; negative controls (blanks) are reaction mixtures that contain no AMPK enzyme.
After 60 minutes, 10 μl ADP-Glo® solution (ADP-Glo Reagent #V912B Promega) (heated to room temperature) were added to each well and incubation was continued for 40 minutes. Then 20 μl Kinase detection mix (Detection Buffer #V913B Promega; Kinase Detection Substrate #V914B Promega) were added and incubated for additional 40 minutes at room temperature.
All incubations were done in sealed plates in the dark.
The plates were read with an Envision Luminescence Reader (Perkin-Elmer).
Data Evaluation and Calculation:
The output file of the reader is a csv file that contains the well number and measured RLU. For data evaluation and calculation, the measurement of the negative control was set as 0% control and the measurement of the positive control was set as 100% control. Based on these values the % value for the measurement of each substance concentration was calculated using Assay Explorer software (Accelrys). Activating compounds achieve % of control values above 100%. The IC50 values were calculated from the % control values using Assay Explorer software. Calculation: [y=(a−d)/(1+(x/c)^b)+d], a=low value, d=high value; x=conc M; c=IC50 M; b=hill; y=% ctrl. The maximal achievable activation of a compound in the tested concentration range is reported as percent of control max (PoCmax).

Chain of AMPK α1β1γ1 (Q13131 whole entry): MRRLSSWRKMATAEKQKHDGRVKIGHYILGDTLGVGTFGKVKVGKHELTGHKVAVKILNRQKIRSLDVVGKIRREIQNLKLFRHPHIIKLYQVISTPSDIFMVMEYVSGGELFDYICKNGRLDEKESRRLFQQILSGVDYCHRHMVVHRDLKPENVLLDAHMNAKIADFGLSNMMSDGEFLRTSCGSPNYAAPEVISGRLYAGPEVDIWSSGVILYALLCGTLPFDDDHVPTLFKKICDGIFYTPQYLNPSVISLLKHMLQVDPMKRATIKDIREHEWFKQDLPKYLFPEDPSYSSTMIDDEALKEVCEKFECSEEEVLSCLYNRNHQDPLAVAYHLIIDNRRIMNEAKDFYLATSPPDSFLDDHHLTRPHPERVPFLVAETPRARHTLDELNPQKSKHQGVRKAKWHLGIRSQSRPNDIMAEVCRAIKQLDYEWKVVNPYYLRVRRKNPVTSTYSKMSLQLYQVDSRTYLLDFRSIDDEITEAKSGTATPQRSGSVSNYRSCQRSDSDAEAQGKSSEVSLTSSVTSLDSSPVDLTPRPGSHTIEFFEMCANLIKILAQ
Chain of AMPK α1β1γ1 (Q9Y478 whole entry): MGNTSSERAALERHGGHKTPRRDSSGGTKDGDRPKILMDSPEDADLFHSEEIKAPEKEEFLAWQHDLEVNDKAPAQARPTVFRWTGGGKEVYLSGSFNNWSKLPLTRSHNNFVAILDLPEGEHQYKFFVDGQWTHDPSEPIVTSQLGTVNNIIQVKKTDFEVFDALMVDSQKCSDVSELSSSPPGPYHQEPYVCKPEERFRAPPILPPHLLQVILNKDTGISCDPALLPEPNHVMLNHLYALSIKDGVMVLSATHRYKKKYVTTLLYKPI
Chain of AMPK α1β1γ1 (P54619 whole entry partner): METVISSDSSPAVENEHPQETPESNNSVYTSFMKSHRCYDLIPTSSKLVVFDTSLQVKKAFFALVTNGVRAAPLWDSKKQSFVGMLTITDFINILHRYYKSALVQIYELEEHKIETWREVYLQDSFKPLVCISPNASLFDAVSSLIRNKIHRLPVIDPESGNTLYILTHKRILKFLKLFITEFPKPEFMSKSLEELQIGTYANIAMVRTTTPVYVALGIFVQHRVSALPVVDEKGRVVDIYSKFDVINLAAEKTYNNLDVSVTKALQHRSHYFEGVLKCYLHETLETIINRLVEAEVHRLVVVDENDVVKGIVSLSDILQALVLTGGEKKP

Emax	EC50	SMILES
540%	284 nM	CS(C)(=O)=Nc1ccc(-c2ccc(-c3nc4[nH]c(O[C@@H]5CO[C@H]6[C@@H]5OC[C@H]6O)nc4cc3Cl)cc2)cc1F [Example 1, ({4-[4-(2-{[(3R,3aR,6R,6aR)-6-Hydroxy-hexahydrofuro[3,2-b]furan-3-yl]oxy}-6-chloro-3H-imidazo[4,5-b]pyridin-5-yl)phenyl]-2-fluorophenyl}imino)dimethyl-λ^6-sulfanone]
496%	115 nM	CS(C)(=O)=Nc1cc(F)c(-c2ccc(-c3nc4[nH]c(O[C@@H]5CO[C@H]6[C@@H]5OC[C@H]6O)nc4cc3Cl)cc2)c(F)c1 [Example 2, ({4-[4-(2-{[(3R,3aR,6R,6aR)-6-Hydroxy-hexahydrofuro[3,2-b]furan-3-yl]oxy}-6-chloro-3H-imidazo[4,5-b]pyridin-5-yl)phenyl]-3,5-difluorophenyl}imino)dimethyl-λ^6-sulfanone]
480%	302 nM	CS(C)(=O)=Nc1cc(F)c(-c2ccc(-c3nc4[nH]c(O[C@@H]5CO[C@H]6[C@@H]5OC[C@H]6O)nc4cc3Cl)cc2)cc1F [Example 3, ({4-[4-(2-{[(3R,3aR,6R,6aR)-6-Hydroxy-hexahydrofuro[3,2-b]furan-3-yl]oxy}-6-chloro-3H-imidazo[4,5-b]pyridin-5-yl)phenyl]-2,5-difluorophenyl}imino)dimethyl-λ^6-sulfanone]
421%	3560 nM	CS(C)(=O)=Nc1c(F)cc(-c2ccc(-c3nc4[nH]c(O[C@@H]5CO[C@H]6[C@@H]5OC[C@H]6O)nc4cc3Cl)cc2)cc1F [Example 4, ({4-[4-(2-{[(3R,3aR,6R,6aR)-6-Hydroxy-hexahydrofuro[3,2-b]furan-3-yl]oxy}-6-chloro-3H-imidazo[4,5-b]pyridin-5-yl)phenyl]-2,6-difluorophenyl}imino)dimethyl-λ^6-sulfanone]
538%	60 nM	CS(C)(=O)=Nc1ccc(-c2ccc(-c3nc4[nH]c(O[C@@H]5CO[C@H]6[C@@H]5OC[C@H]6O)nc4cc3Cl)cc2)c(F)c1 [Example 5, ({4-[4-(2-{[(3R,3aR,6R,6aR)-6-Hydroxy-hexahydrofuro[3,2-b]furan-3-yl]oxy}-6-chloro-3H-imidazo[4,5-b]pyridin-5-yl)phenyl]-3-fluorophenyl}imino)dimethyl-λ^6-sulfanone]
490%	450 nM	CS(C)(=O)=Nc1ccc(-c2ccc(-c3nc4[nH]c(O[C@@H]5CO[C@H]6[C@@H]5OC[C@H]6O)nc4cc3Cl)cc2)c(F)c1F [Example 6, ({4-[4-(2-{[(3R,3aR,6R,6aR)-6-Hydroxy-hexahydrofuro[3,2-b]furan-3-yl]oxy}-6-chloro-3H-imidazo[4,5-b]pyridin-5-yl)phenyl]-2,3-difluorophenyl}imino)dimethyl-λ^6-sulfanone]
640%	125 nM	CS(C)(=O)=Nc1ccc(-c2ccc(-c3nc4[nH]c(O[C@@H]5CO[C@H]6[C@@H]5OC[C@H]6O)nc4cc3Cl)c(F)c2)cc1 [Example 7, ({4-[4-(2-{[(3R,3aR,6R,6aR)-6-Hydroxy-hexahydrofuro[3,2-b]furan-3-yl]oxy}-6-chloro-3H-imidazo[4,5-b]pyridin-5-yl)-3-fluorophenyl]phenyl}imino)dimethyl-λ^6-sulfanone]
659%	255 nM	CS(C)(=O)=Nc1ccc(-c2ccc(-c3nc4[nH]c(O[C@@H]5CO[C@H]6[C@@H]5OC[C@H]6O)nc4cc3Cl)cc2F)cc1 [Example 8, ({4-[4-(2-{[(3R,3aR,6R,6aR)-6-Hydroxy-hexahydrofuro[3,2-b]furan-3-yl]oxy}-6-chloro-3H-imidazo[4,5-b]pyridin-5-yl)-2-fluorophenyl]phenyl}imino)dimethyl-λ^6-sulfanone]
700%	282 nM	CS(C)(=O)=Nc1ccc(-c2ccc(-c3nc4[nH]c(O[C@@H]5CO[C@H]6[C@@H]5OC[C@H]6O)nc4cc3Cl)c(F)c2F)cc1 [Example 9, ({4-[4-(2-{[(3R,3aR,6R,6aR)-6-Hydroxy-hexahydrofuro[3,2-b]furan-3-yl]oxy}-6-chloro-3H-imidazo[4,5-b]pyridin-5-yl)-2,3-difluorophenyl]phenyl}imino)dimethyl-λ^6-sulfanone]
479%	193 nM	CS(C)(=O)=Nc1cnc(-c2ccc(-c3nc4[nH]c(O[C@@H]5CO[C@H]6[C@@H]5OC[C@H]6O)nc4cc3Cl)cc2)c(F)c1 [Example 10, ({6-[4-(2-{[(3R,3aR,6R,6aR)-6-Hydroxy-hexahydrofuro[3,2-b]furan-3-yl]oxy}-6-chloro-3H-imidazo[4,5-b]pyridin-5-yl)phenyl]-5-fluoropyridin-3-yl}imino)dimethyl-λ^6-sulfanone]
423%	1200 nM	COc1nc(-c2ccc(N=S(C)(C)=O)cc2)ccc1-c1nc2[nH]c(O[C@@H]3CO[C@H]4[C@@H]3OC[C@H]4O)nc2cc1Cl [Example 11, ({4-[5-(2-{[(3R,3aR,6R,6aR)-6-Hydroxy-hexahydrofuro[3,2-b]furan-3-yl]oxy}-6-chloro-3H-imidazo[4,5-b]pyridin-5-yl)-6-methoxypyridin-2-yl]phenyl}imino)dimethyl-λ^6-sulfanone]
608%	109 nM	CS(C)(=O)=Nc1ccc(-c2ccc(-c3nc4nc(O[C@@H]5CO[C@H]6[C@@H]5OC[C@H]6O)[nH]c4cc3F)cc2)cc1 [Example 12, ({4-[4-(2-{[(3R,3aR,6R,6aR)-6-Hydroxy-hexahydrofuro[3,2-b]furan-3-yl]oxy}-6-fluoro-1H-imidazo[4,5-b]pyridin-5-yl)phenyl]phenyl}imino)dimethyl-λ^6-sulfanone]
523%		CS(=N)(=O)c1ccc(-c2ccc(-c3nc4[nH]c(O[C@@H]5CO[C@H]6[C@@H]5OC[C@H]6O)nc4cc3Cl)cc2)c(F)c1 (stereo partly drawn) [Example 13, {4-[4-(2-{[(3R,3aR,6R,6aR)-6-Hydroxy-hexahydrofuro[3,2-b]furan-3-yl]oxy}-6-chloro-3H-imidazo[4,5-b]pyridin-5-yl)phenyl]-3-fluorophenyl}(imino)methyl-λ^6-sulfanone]
484%	68 nM	CS(C)(=O)=Nc1ccc(-c2ccc(-c3nc4nc(O[C@@H]5CO[C@H]6[C@@H]5OC[C@H]6O)[nH]c4cc3F)cc2)c(F)c1 [Example 14, ({4-[4-(2-{[(3R,3aR,6R,6aR)-6-Hydroxy-hexahydrofuro[3,2-b]furan-3-yl]oxy}-6-fluoro-1H-imidazo[4,5-b]pyridin-5-yl)phenyl]-3-fluorophenyl}imino)dimethyl-λ^6-sulfanone]
426%	344 nM	COc1nc(-c2ccc(N=S(C)(C)=O)cc2F)ccc1-c1nc2[nH]c(O[C@@H]3CO[C@H]4[C@@H]3OC[C@H]4O)nc2cc1Cl [Example 15, ({4-[5-(2-{[(3R,3aR,6R,6aR)-6-Hydroxy-hexahydrofuro[3,2-b]furan-3-yl]oxy}-6-chloro-3H-imidazo[4,5-b]pyridin-5-yl)-6-methoxypyridin-2-yl]-3-fluorophenyl}imino)dimethyl-λ^6-sulfanone]
475%	74 nM	CS(C)(=O)=Nc1ccc(-c2cc(F)c(-c3nc4nc(O[C@@H]5CO[C@H]6[C@@H]5OC[C@H]6O)[nH]c4cc3F)c(F)c2)cc1 [Example 16, ({4-[4-(2-{[(3R,3aR,6R,6aR)-6-Hydroxy-hexahydrofuro[3,2-b]furan-3-yl]oxy}-6-fluoro-1H-imidazo[4,5-b]pyridin-5-yl)-3,5-difluorophenyl]phenyl}imino)dimethyl-λ^6-sulfanone]
475%	84 nM	CS(C)(=O)=Nc1ccc(-c2cc(F)c(-c3nc4nc(O[C@@H]5CO[C@H]6[C@@H]5OC[C@H]6O)[nH]c4cc3Cl)c(F)c2)cc1 [Example 17, ({4-[4-(2-{[(3R,3aR,6R,6aR)-6-Hydroxy-hexahydrofuro[3,2-b]furan-3-yl]oxy}-6-chloro-1H-imidazo[4,5-b]pyridin-5-yl)-3,5-difluorophenyl]phenyl}imino)dimethyl-λ^6-sulfanone]
